Values after ≈ are worked out from the molar mass of the structure shown. Where two headings read alike, the source gives them in different places.
Assays:
[1] = tested on: E. coli AG100; assay: Broth microdilution MIC in CAMHB; format: cell-based; conditions: Escherichia coli, MHB, read-out: Minimum Inhibitory Concentration, E. coli AG100
Method: (§1) Example III: In Vitro Antibacterial Assays
(§2) To determine the ability of test compounds to inhibit the growth of bacterial strains, classic cell based broth microdilution minimum inhibitory concentration (MIC) assays were employed. MIC assays are performed according to CLSI methods except where otherwise noted (CLSI, 2018 and CLSI, 2019). The reference type strain E. coli ATCC 25922; the wild-type parent strain E. coli AG100; the hyper-permeable E. coli 901C and E. coli D22; and the E. coli AG100A strain lacking the acrAB efflux pump encoding genes were used to determine the ability of the PBP inhibitors to penetrate the outer membrane of gram-negative bacteria and inhibit bacterial growth. […] The P. aeruginosa ATCC 27853 and A. baumannii ATCC 19606, along with the hyper-permeable P. aeruginosa ATCC 35151 and an engineered efflux pump-compromised strain of P. aeruginosa (ΔmexAB-oprM) were used to determine the ability of PBP inhibitors to penetrate the outer membrane of P. aeruginosa and A. baumannii and assess antibacterial activity against these important gram-negative organisms.
(§3) Briefly, cryo-preserved bacterial cultures of challenge strains are streaked for isolation on appropriate agar medium, in this case cation-adjusted Mueller Hinton agar. Following incubation to allow growth of the colonies, plates are sealed with parafilm and stored refrigerated for up to two weeks. For preparation of assay inoculum and to ensure low variability, at least 5 colonies are picked from the agar plates with an inoculating loop and aseptically transferred to a culture tube containing 3 mL of cation-adjusted Mueller Hinton broth (CAMHB). The broth culture is grown for 3-5 hours at 37° C. with shaking at 200 rpm. Meanwhile, 2-fold serial dilutions of test compounds are conducted in a 96-well plate with a final volume of 75 μL per well at 2-fold the final desired concentration. After the dilution plates are set up the growing cultures are then diluted in a cuvette containing CAMHB and the optical density is measured at 600 nm. The inoculum is diluted such that 75 μL of this culture in CAMHB results in a starting bacterial concentration of 2-8×10^5 CFU/mL when added to the dilution plates. The plates are incubated for 16-20 hours for Enterobacteriaceae and Pseudomonas and 20-24 hours for Acinetobacter at 37° C. The MIC values are read visually as the lowest concentration well with no bacterial growth.

[2] = tested on: E. coli D22; assay: Broth microdilution MIC in CAMHB; format: cell-based; conditions: Escherichia coli, MHB, read-out: Minimum Inhibitory Concentration, E. coli D22
Method: as §1, §2, §3

[3] = tested on: E. coli AG100A; assay: Broth microdilution MIC in CAMHB; format: cell-based; conditions: Escherichia coli, read-out: Minimum Inhibitory Concentration, E. coli AG100A
Method: as §1, §2, §3

[4] = tested on: K. pneumoniae SI-117 producing VIM-1; assay: Broth microdilution MIC in CAMHB; format: cell-based; conditions: Klebsiella pneumoniae, read-out: Minimum Inhibitory Concentration, K. pneumoniae SI-117
Method: as §1, §2, §3

[5] = tested on: E. coli ATCC 25922; assay: Broth microdilution MIC in CAMHB; format: cell-based
Method: as §1, §2, §3

[6] = tested on: A. baumannii ATCC 19606; assay: Broth microdilution MIC in CAMHB; format: cell-based; conditions: Acinetobacter baumannii, ATCC19606; MHB; read-out: Minimum Inhibitory Concentration, A. baumannii ATCC 19606
Method: as §1, §2, §3

[7] = tested on: K. pneumoniae UMM producing SHV-5 and KPC-2; assay: Broth microdilution MIC in CAMHB; format: cell-based; conditions: Klebsiella pneumoniae, read-out: Minimum Inhibitory Concentration, K. pneumoniae UMM
Method: as §1, §2, §3

[8] = tested on: K. pneumoniae 848844 producing SHV-11 and KPC-2; assay: Broth microdilution MIC in CAMHB; format: cell-based; conditions: Klebsiella pneumoniae, read-out: Minimum Inhibitory Concentration, K. pneumoniae 848844
Method: as §1, §2, §3

[9] = tested on: P. aeruginosa ATCC 27853; assay: Broth microdilution MIC in CAMHB; format: cell-based; conditions: Pseudomonas aeruginosa, ATCC27853; MHB; read-out: Minimum Inhibitory Concentration, P. aeruginosa ATCC 27853
Method: as §1, §2, §3

[10] = tested on: P. aeruginosa ATCC 35151; assay: Broth microdilution MIC in CAMHB; format: cell-based; conditions: Pseudomonas aeruginosa, ATCC35151; MHB; hyper-permeable strain; read-out: Minimum Inhibitory Concentration, P. aeruginosa ATCC 35151
Method: as §1, §2, §3

[11] = tested on: E. coli 901C; assay: Broth microdilution MIC in CAMHB; format: cell-based; conditions: Escherichia coli, MHB, read-out: Minimum Inhibitory Concentration, E. coli 901C
Method: as §1, §2, §3

[12] = tested on: P. aeruginosa (ΔmexAB-oprM); assay: Broth microdilution MIC in CAMHB; format: cell-based; conditions: Pseudomonas aeruginosa, read-out: Minimum Inhibitory Concentration, P. aeruginosa ΔmexAB-OprM
Method: as §1, §2, §3

[13] = target: T1, E. coli K12 PBP3 (Escherichia coli, UniProt P0AD68); assay: biochemical; format: binding
T1 construct: made in house
T1 sequence (P0AD68 1-577): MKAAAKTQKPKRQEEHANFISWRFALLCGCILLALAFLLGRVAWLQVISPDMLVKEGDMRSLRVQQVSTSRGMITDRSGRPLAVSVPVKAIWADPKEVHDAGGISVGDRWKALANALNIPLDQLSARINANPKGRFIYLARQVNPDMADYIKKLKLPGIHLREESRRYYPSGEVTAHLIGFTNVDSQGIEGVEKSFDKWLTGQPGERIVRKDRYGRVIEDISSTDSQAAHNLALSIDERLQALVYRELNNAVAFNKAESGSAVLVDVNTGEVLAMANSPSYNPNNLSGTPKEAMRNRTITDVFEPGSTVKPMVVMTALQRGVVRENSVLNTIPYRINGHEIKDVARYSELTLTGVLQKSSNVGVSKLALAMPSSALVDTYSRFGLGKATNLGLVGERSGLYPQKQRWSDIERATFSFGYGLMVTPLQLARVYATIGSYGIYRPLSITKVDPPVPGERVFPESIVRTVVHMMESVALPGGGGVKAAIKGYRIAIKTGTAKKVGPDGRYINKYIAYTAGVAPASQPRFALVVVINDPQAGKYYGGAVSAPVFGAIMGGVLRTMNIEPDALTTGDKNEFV
From the text: Example I: Experimental Method for Penicillin-Binding Protein Binding Assays with Bocillin-FL Via Fluorescence Polarization
To determine the ability of boronic acid-based test PBP inhibitors to bind Penicillin Binding Proteins (PBPs), Bocillin-FL (fluorescently-labeled penicillin V; ThermoFisher Scientific) was used in a fluorescence polarization (FP) competition binding assay to assess inhibitor binding to PBP2, PBP3 or PBP4 from Escherichia coli (K12), PBP3 from Pseudomonas aeruginosa (PA01), PBP1a, PBP2 and PBP3 from Acinetobacter baumannii (ATCC 19606), and PBP2 from Neiserria gonorrheae (FA19). PBPs were cloned and purified as described previously (E. coli PBPs, King, D. T, et al., ACS Infectious Diseases 2015, 1, 175-184; P. aeruginosa PBP3, Han et. al., PNAS 2010, 107 (51), 22002-22007; A. baumannii PBPs, Penwell et. al., Antimicrob. Agents Chemother. 2015, 59 (3), 1680-1689; N. gonorrhoeae PBP2, Singh et. al., J Biol. Chem. 2019, 294 (38), 14020-14032). To establish assay conditions for competition binding, enzyme titration/saturation binding experiments were initially performed. Bocillin-FL was prepared at 0.2 μM in a buffer comprised of 50 mM Hepes (pH 8.0), 300 mM NaCl and 5% (v/v) glycerol for reactions with E. coli, P. aeruginosa and N. gonorrhoeae PBPs, and 25 mM Tris (pH 8.0), 200 mM NaCl and 10% (v/v) glycerol and 0.005% (v/v) Tween 20 for reactions with A. baumannii PBPs. Saturation binding was performed by mixing 40 μl of PBP solutions ranging in concentrations from 0-24 μM with 40 μl of the 0.2 μM Bocillin-FL solution, in individual wells of a black 384-well microplate. FP was measured immediately upon mixing (Excitation, 490 nm; Emission, 520 nm; g-factor, 0.96), using a Cytation3 (BioTek) microplate reader and measured continuously for up to 120 minutes. […] The competition binding assay (80 μl final volume) was validated using beta-lactams and PBPs at final concentrations of: 1.5 μM, E. coli PBP3; 0.75 μM, P. aeruginosa PBP3; 1 μM A. baumannii PBP1a; 2.5 μM A. baumannii PBP2; 0.2 μM A. baumannii PBP3; and […] N. gonorrhoeae PBP2. Bocillin-FL was at 0.1 μM (0.05 μM with A. baumannii PBP1a) and beta-lactam concentrations ranged from 0-1000 μM. […] Bocillin-FL was added and the FP immediately measured for up to 60 minutes (90 minutes for E. coli PBP2). […] The beta-lactam potency was reported as the concentration of beta-lactam required to reduce the amount of PBP bound-Bocillin-FL by 50% (EC50). […] Binding assays for boronic acid PBP inhibitors were performed in an identical fashion for the respective PBPs

[14] = wild-type parent strain E. coli AG100
[15] = Escherichia coli, ATCC25922; MHB; E. coli ATCC 25922; read-out: Minimum Inhibitory Concentration, E. coli 25922

Row | SMILES | MIC [1, 14] | MIC ([2]; hyper-permeable E. coli D22) | MIC [3] | MIC [4] | MIC [5, 15] | MIC [6] | MIC [7] | MIC [8] | MIC [9] | MIC [10] | MIC ([11]; hyper-permeable E. coli 901C) | MIC [12] | EC50 [13] | MIC ([1]; E. coli AG100 (wild-type parent)) | MIC ([2]; E. coli D22 (hyper-permeable)) | MIC ([5]; Escherichia coli, ATCC25922; E. coli ATCC 25922; MHB; read-out: Minimum Inhibitory Concentration, E. coli 25922) | MIC ([11]; E. coli 901C (hyper-permeable))
1 | NC1(CN2CCN(C(=O)N[C@H](C(=O)N[C@H]3Cc4cccc(C(=O)O)c4OB3O)c3ccc(O)c(F)c3F)C(=O)C2=O)CC1 (single isomer, unassigned) [Example 237] | > 128 µg/mL | > 128 µg/mL | > 128 µg/mL | 32 to 64 µg/mL (≈ 53.2 to 106 µM) | > 128 µg/mL | > 128 µg/mL | 2 to 4 µg/mL (≈ 3.33 to 6.65 µM) | > 128 µg/mL | > 128 µg/mL | 0.5 to 1 µg/mL (≈ 0.831 to 1.66 µM) | > 128 µg/mL | 8 to 16 µg/mL (≈ 13.3 to 26.6 µM) | 30 to 500 µM | – | – | – | –
2 | O=C(O)c1cccc2c1OB(O)[C@@H](NC(=O)C(NC(=O)N1CCN(CCF)C(=O)C1=O)c1ccc(O)c(F)c1F)C2 (stereo partly drawn) [Example 235, (3R)-3-(2-(2,3-difluoro-4-hydroxyphenyl)-2-(4-(2-fluoroethyl)-2,3-dioxopiperazine-1-carboxamido)acetamido)-2-hydroxy-3,4-dihydro-2H-benzo[e][1,2]oxaborinine-8-carboxylic acid] | 32 to 64 µg/mL (≈ 55.3 to 111 µM) | 32 to 64 µg/mL (≈ 55.3 to 111 µM) | 32 to 64 µg/mL (≈ 55.3 to 111 µM) | 2 to 4 µg/mL (≈ 3.46 to 6.92 µM) | 8 to 16 µg/mL (≈ 13.8 to 27.7 µM) | > 128 µg/mL | < 0.25 µg/mL | 32 to 64 µg/mL (≈ 55.3 to 111 µM) | > 128 µg/mL | 0.5 to 1 µg/mL (≈ 0.865 to 1.73 µM) | 32 to 64 µg/mL (≈ 55.3 to 111 µM) | 8 to 16 µg/mL (≈ 13.8 to 27.7 µM) | < 30 µM | – | – | – | –
3 | CCN1CCN(C(=O)NC(C(=O)N[C@H]2Cc3cccc(C(=O)O)c3OB2O)c2ccc(C(=O)O)c([N+](=O)[O-])c2)C(=O)C1=O (stereo partly drawn) [Example 220, (3R)-3-(2-(4-carboxy-3-nitrophenyl)-2-(4-ethyl-2,3-dioxopiperazine-1-carboxamido)acetamido)-2-hydroxy-3,4-dihydro-2H-benzo[e][1,2]oxaborinine-8-carboxylic acid] | – | – | 32 to 64 µg/mL (≈ 53.6 to 107 µM) | 2 to 4 µg/mL (≈ 3.35 to 6.7 µM) | – | > 128 µg/mL | < 0.25 µg/mL | 32 to 64 µg/mL (≈ 53.6 to 107 µM) | > 128 µg/mL | 0.5 to 1 µg/mL (≈ 0.837 to 1.67 µM) | – | 8 to 16 µg/mL (≈ 13.4 to 26.8 µM) | – | > 128 µg/mL | 32 to 64 µg/mL (≈ 53.6 to 107 µM) | > 128 µg/mL | > 128 µg/mL
